US12064437B2, “Methods for treating systemic lupus erythematosus and the use of biomarkers as a predictor of clinical sensitivity to therapies” (CELGENE CORPORATION, priority 2020, dated 2024)

How the values were obtained:
Type in all cases: in vivo, human
[1] = tested on: subjects with active autoantibody-positive SLE; assay: Exposure-response analysis: logistic regression of SRI(4) response on iberdomide AUCss
Procedure: PK assessments were performed. Exposure-response analysis included subjects from Study SLE-002 who had both posthoc estimated iberdomide PK metric of AUCss from the final population PK model and efficacy data.
The effect of iberdomide exposure on SRI(4) response was further evaluated by multivariate logistic modeling. Subject characteristics of baseline oral OCS (yes as reference), baseline antimalarials (yes as reference), categorical variables of Type I IFN and IKZF3 (Aiolos) signature (low as reference) were tested in regression analysis. Subjects with IFKZ3 (Aiolos) high gene signature were associated with better response (p=0.033) (Table 2).

[2] = tested on: subjects with active autoantibody-positive SLE; assay: Phase 2b study in SLE: improvement of ≥50% from baseline in CLASI activity score; details: for percentage of subjects with improvement of ≥50% from baseline in CLASI activity score: baseline CLASI ≥8, Week 24
Procedure: (§1) The pharmacokinetics, pharmacodynamics (PD), efficacy, and safety of oral iberdomide ((S)-3-[4-({4-[(morpholin-4-yl)methyl]phenyl}methoxy)-1-oxo-1,3-dihydro-2H-isoindol-2-yl]piperidine-2,6-dione-hydrogen chloride (1/1)) were evaluated in a phase 2b study in subjects with active autoantibody-positive SLE.
(§2) Adult SLE patients (N=288) with a ≥6-month history of SLE and SLE Disease Activity Index (SLEDAI 2K) ≥6 were randomized to placebo (n=83) or iberdomide 0.15 mg QD (n=42), 0.3 mg QD (n=82), or 0.45 mg QD (n=81). Clinical response was determined by the SLE Responder Index 4 (SRI-4) at week 24 for all patients and within pre-specified biomarker-enriched subsets based on expression of Ikaros, Aiolos, the Type 1 IFN signature (IFI27, IFI44, IFI44L, RSAD2), and other gene modules measured from fingerstick blood collected at baseline (Modular Immune Profile Test, DxTerity Diagnostics, Inc.). The primary objective of the study was to evaluate the clinical efficacy of 3 doses of iberdomide (0.45 mg once per day [QD], 0.30 mg QD, or 0.15 mg QD) compared to placebo, for the treatment of active SLE using the SLE Responder Index at Week 24.
CLASI activity score at Week 24 was analyzed. Results for improvement of ≥50% from baseline in CLASI activity score at Week 24 were observed. Results are described as follows for overall subjects at each time point and for subgroups based on baseline characteristics and on mRNA and DNA expression as follows: […]

[3] = tested on: subjects with active autoantibody-positive SLE; assay: Phase 2b study in SLE: SLE Responder Index 4 (SRI-4) response at week 24; details: for Percentage of Subjects Who Achieve SRI(4) at Week 24, n/m (%) / SRI(4) at Week 24, Stratified Difference (%) (95% CI), Iberdomide - Placebo: ITT; for SRI-4 treatment effect versus placebo: week 24
Procedure: as §1, §2

[4] = AUCss on IFKZ3 (Aiolos) High Subset
[5] = B cell: High at baseline, 0.15 mg QD
[6] = B cell: High at baseline, 0.30 mg QD
[7] = B cell: High at baseline, 0.45 mg QD
[8] = IKZF1: High at baseline, 0.15 mg QD
[9] = IKZF1: High at baseline, 0.30 mg QD
[10] = IKZF1: High at baseline, 0.45 mg QD
[11] = IKZF1 Status of SNP rs4917014: 1 or 2 Copies, 0.15 mg QD
[12] = IKZF1 Status of SNP rs4917014: 1 or 2 Copies, 0.30 mg QD
[13] = IKZF1 Status of SNP rs4917014: 1 or 2 Copies, 0.45 mg QD

Structure (SMILES): O=C1CC[C@H](N2Cc3c(OCc4ccc(CN5CCOCC5)cc4)cccc3C2=O)C(=O)N1 [iberdomide, (S)-3-[4-({4-[(morpholin-4-yl)methyl]phenyl}methoxy)-1-oxo-1,3-dihydro-2H-isoindol-2-yl]piperidine-2,6-dione-hydrogen chloride (1/1)]
- OR (odds ratio) of Multivariate Logistic Model for SRI(4) [1, 4]: 1.102
- Parameter Estimate of Multivariate Logistic Model for SRI(4) [1, 4]: 0.0969
- relationship of binary response SRI(4) to iberdomide AUCss (logistic regression) ([1]; dose range 0.15 mg to 0.45 mg QD): no relationship
- improvement of ≥50% from baseline in CLASI activity score, stratified difference from placebo ([2]; 0.45 mg QD, Week 8, ITT population using NRI): 14.3%
- improvement of ≥50% from baseline in CLASI activity score, stratified difference from placebo ([2]; 0.45 mg QD, Week 12, ITT population using NRI): 12.2%
- improvement of ≥50% from baseline in CLASI activity score, stratified difference from placebo ([2]; 0.45 mg QD, Week 16, ITT population using NRI): 18.2%
- improvement of ≥50% from baseline in CLASI activity score, stratified difference from placebo ([2]; 0.45 mg QD, Week 20, ITT population using NRI): 12.3%
- percentage of subjects with improvement of ≥50% from baseline in CLASI activity score ([2]; IKZF3 high, 0.15 mg QD): 50.0%
- percentage of subjects with improvement of ≥50% from baseline in CLASI activity score ([2]; IKZF3 high, 0.30 mg QD): 33.3%
- percentage of subjects with improvement of ≥50% from baseline in CLASI activity score ([2]; IKZF3 high, 0.45 mg QD): 77.8%
- percentage of subjects with improvement of ≥50% from baseline in CLASI activity score ([2]; Ikaros IFN module high, 0.15 mg QD): 54.5%
- percentage of subjects with improvement of ≥50% from baseline in CLASI activity score ([2]; Ikaros IFN module high, 0.30 mg QD): 52.4%
- percentage of subjects with improvement of ≥50% from baseline in CLASI activity score ([2]; Ikaros IFN module high, 0.45 mg QD): 63.6%
- percentage of subjects with improvement of ≥50% from baseline in CLASI activity score ([2]; Type 1 IFN module high, 0.15 mg QD): 66.7%
- percentage of subjects with improvement of ≥50% from baseline in CLASI activity score ([2]; Type 1 IFN module high, 0.30 mg QD): 52.4%
- percentage of subjects with improvement of ≥50% from baseline in CLASI activity score ([2]; Type 1 IFN module high, 0.45 mg QD): 61.9%
- improvement of ≥50% from baseline in CLASI activity score, stratified difference from placebo ([2]; baseline CLASI activity score ≥8, 0.15 mg QD, Week 16): 10.6%
- improvement of ≥50% from baseline in CLASI activity score, stratified difference from placebo ([2]; baseline CLASI activity score ≥8, 0.15 mg QD, Week 20): 35.3%
- improvement of ≥50% from baseline in CLASI activity score, stratified difference from placebo ([2]; baseline CLASI activity score ≥8, 0.30 mg QD, Week 8): 23.6%
- improvement of ≥50% from baseline in CLASI activity score, stratified difference from placebo ([2]; baseline CLASI activity score ≥8, 0.30 mg QD, Week 16): 3.1
- improvement of ≥50% from baseline in CLASI activity score, stratified difference from placebo ([2]; baseline CLASI activity score ≥8, 0.45 mg QD, Week 4): 32.0%
- improvement of ≥50% from baseline in CLASI activity score, stratified difference from placebo ([2]; baseline CLASI activity score ≥8, 0.45 mg QD, Week 16): 9.4%
- SRI(4) stratified difference from placebo ([3]; 0 copies of IKZF1 rs4917014 protective minor allele (G), 0.45 mg QD): 6.1%
- estimated SRI-4 response rate ([3]; Aiolos (IKZF3) gene expression cutoff −0.49, 0.45 mg dose, prevalence vs. cutoff analysis): 60-65%
- Percentage of Subjects Who Achieve SRI(4) at Week 24, n/m (%) [3, 5]: 8/24 (33.3) %
- SRI(4) at Week 24, Stratified Difference (%) (95% CI), Iberdomide - Placebo [3, 5]: −0.7 (−22.56, 22.94) %
- Percentage of Subjects Who Achieve SRI(4) at Week 24, n/m (%) [3, 6]: 19/49 (38.8) %
- SRI(4) at Week 24, Stratified Difference (%) (95% CI), Iberdomide - Placebo [3, 6]: 4.5 (−15.06, 23.69) %
- Percentage of Subjects Who Achieve SRI(4) at Week 24, n/m (%) [3, 7]: 30/54 (55.6) %
- SRI(4) at Week 24, Stratified Difference (%) (95% CI), Iberdomide - Placebo [3, 7]: 20.4 (0.74, 38.01) %
- SRI-4 treatment effect versus placebo ([3]; IFN High Aiolos High double-positive population, high dose 0.45 mg): 29.8%
- SRI-4 treatment effect versus placebo ([3]; IFN High Aiolos High double-positive population, low dose 0.15 mg): 29.8%
- SRI-4 treatment effect versus placebo ([3]; IFN High Aiolos Low population, low dose 0.15 mg): 26.8%
- SRI-4 treatment effect versus placebo ([3]; IFN Low Aiolos High subset, high dose 0.45 mg): 35.0%
- Percentage of Subjects Who Achieve SRI(4) at Week 24, n/m (%) [3, 8]: 12/28 (42.9) %
- SRI(4) at Week 24, Stratified Difference (%) (95% CI), Iberdomide - Placebo [3, 8]: 7.0 (−14.36, 28.68) %
- Percentage of Subjects Who Achieve SRI(4) at Week 24, n/m (%) [3, 9]: 21/53 (39.6) %
- SRI(4) at Week 24, Stratified Difference (%) (95% CI), Iberdomide - Placebo [3, 9]: 2.4 (−15.87, 20.58) %
- Percentage of Subjects Who Achieve SRI(4) at Week 24, n/m (%) [3, 10]: 35/64 (54.7) %
- SRI(4) at Week 24, Stratified Difference (%) (95% CI), Iberdomide - Placebo [3, 10]: 16.1 (−1.76, 32.65) %
- Percentage of Subjects Who Achieve SRI(4) at Week 24, n/m (%) [3, 11]: 11/21 (52.4) %
- SRI(4) at Week 24, Stratified Difference (%) (95% CI), Iberdomide - Placebo [3, 11]: 23.0 (−2.36, 46.07) %
- Percentage of Subjects Who Achieve SRI(4) at Week 24, n/m (%) [3, 12]: 18/46 (39.1) %
- SRI(4) at Week 24, Stratified Difference (%) (95% CI), Iberdomide - Placebo [3, 12]: 7.9 (−12.18, 26.84) %
- Percentage of Subjects Who Achieve SRI(4) at Week 24, n/m (%) [3, 13]: 20/36 (55.6) %
- SRI(4) at Week 24, Stratified Difference (%) (95% CI), Iberdomide - Placebo [3, 13]: 21.3%
